Like-named read-outs stand apart in the source and are kept apart here.
What was measured:
[1] = molecular target: recombinant SARS-CoV-2 Main protease (Mpro) (Severe acute respiratory syndrome coronavirus 2 (2019-nCoV) (SARS-CoV-2), UniProt P0DTD1); experiment: Cov Mpro Biochemical IC50 Assay; details: read-out: MPro IC50
SARS-CoV-2-NLuc = experiment: microbe, parasite or virus in culture; type: cell-based, SARS Coronavirus 2
[2] = recombinant SARS-CoV-2 Mpro 7.5 nM, fluorogenic peptide substrate 40 μM
[3] = Severe acute respiratory syndrome coronavirus, 48 h, read-out: MPro EC50
[4] = recombinant SARS-CoV-2 Mpro, fluorogenic peptide substrate
[5] = Severe acute respiratory syndrome coronavirus, 48 h; read-out: MPro EC50

Row | Compound | IC50 [1, 2] [nM] | EC50 (SARS-CoV-2-NLuc; [3]) [nM] | IC50 [1, 4] [nM] | EC50 (SARS-CoV-2-NLuc; [5]) [nM] | EC50 (SARS-CoV-2-NLuc; read-out: MPro EC50) [nM]
1 | CC1(C)Cc2c(-c3cccc(Cl)c3-c3cc4[nH]c(=O)n(-c5cncc6ccccc56)c(=O)c4s3)cnn2C1 [Example 524] | 7.83 | 5.95 | – | – | –
2 | NC(=O)c1ccccc1-c1cc2[nH]c(=O)n(-c3cncc4ccccc34)c(=O)c2cc1F [Example 68] | – | 43800 | 1010 | – | –
3 | O=c1[nH]c2cc(-c3ccccc3Cl)sc2c(=O)n1-c1cncc2ccc(N3CC4(COC4)C3)cc12 [Example 397] | 3.51 | 15.2 | – | – | –
4 | CNC(=O)CCn1c(=O)n(-c2cncc3ccccc23)c(=O)c2sc(-c3ccccc3Cl)cc21 [Example 613, 3-(6-(2-chlorophenyl)-3-(isoquinolin-4-yl)-2,4-dioxo-3,4-dihydrothieno[3,2-d]pyrimidin-1(2H)-yl)-N-methylpropanamide] | 68.6 | – | – | 91.9 | –
5 | COc1cc(-c2cc3[nH]c(=O)n(-c4cncc5cc(C#N)sc45)c(=O)c3s2)c(Cl)cc1F [Example 1011, 7-[6-(2-chloro-4-fluoro-5-methoxy-phenyl)-2,4-dioxo-1H-thieno[3,2-d]pyrimidin-3-yl]thieno[3,2-c]pyridine-2-carbonitrile] | 14.5 | 81.2 | – | – | –
6 | O=c1[nH]c2cc(-c3ccc4sccc4c3)ccc2c(=O)n1-c1cncc2ccccc12 [Example 49] | – | 12800 | > 100000 | – | –
7 | O=c1[nH]c2cc(-c3ccccc3Cl)sc2c(=O)n1-c1cnccc1C1CCOCC1 [Example 138] | – | 144 | 16.2 | – | –
8 | CC1(N2CCN(c3ccc4cncc(-n5c(=O)[nH]c6cc(-c7ccccc7Cl)sc6c5=O)c4c3)CC2)COC1 [Example 391] | – | 10.2 | 6.25 | – | –
9 | COc1cc(-c2cc3c(s2)c(=O)n(-c2cncc4cnn(C)c24)c(=O)n3CCC#N)c(C)cc1Cl [Example 1018] | 15 | 19.2 | – | – | –
10 | NC(=O)c1ccccc1-c1cc2[nH]c(=O)n(-c3cncc4ccccc34)c(=O)c2s1 [Example 3] | – | > 50000 | 312 | – | –
11 | Cc1c2c(-n3c(=O)c4sc(-c5ccc(F)cc5Cl)cc4n(CCC#N)c3=O)cncc2nn1C (single isomer, unassigned) [Example 972, 3-(6-(2-chloro-4-fluorophenyl)-3-(2,3-dimethyl-2H-pyrazolo[3,4-c]pyridin-4-yl)-2,4-dioxo-3,4-dihydrothieno[3,2-d]pyrimidin-1(2H)-yl)propanenitrile] | > 1000 | – | – | – | > 1000
12 | NC(=O)c1ccccc1-c1cnc2c(=O)n(-c3cncc4ccccc34)c(=O)[nH]c2c1 [Example 70] | – | > 50000 | 2680 | – | –
13 | O=c1[nH]c2c(Cl)c(-c3ccccc3Cl)ccc2c(=O)n1-c1cncc2ccccc12 [Example 79] | – | 12100 | 14000 | – | –
14 | Cc1cc(C)c(-c2cc3[nH]c(=O)n(-c4cncc5ccccc45)c(=O)c3s2)cc1C#N [Example 648] | 99.5 | 188 | – | – | –
15 | CC(C)c1cncc(-n2c(=O)[nH]c3cc(-c4ccccc4Cl)sc3c2=O)c1 [Example 376] | – | 47300 | 43300 | – | –
16 | Cn1ncc2cncc(-n3c(=O)[nH]c4cc(-c5cc(F)ccc5C#N)sc4c3=O)c21 [Example 700] | 54.6 | – | – | 466 | –
17 | CS(=O)(=O)N1CCN(c2ccc3cncc(-n4c(=O)[nH]c5cc(-c6ccccc6Cl)sc5c4=O)c3c2)CC1 [Example 421] | 4.42 | 38.8 | – | – | –
18 | Cn1nnc2cncc(-n3c(=O)c4sc(-c5ccccc5C#N)cc4n(CCC#N)c3=O)c21 [Example 877] | 54.1 | 216 | – | – | –
19 | COc1ccc(Cl)c(-c2ccc3c(=O)n(-c4cncc5ccccc45)c(=O)[nH]c3c2)c1 [Example 92, 7-(2-chloro-5-methoxy-phenyl)-3-(4-isoquinolyl)-1H-quinazoline-2,4-dione] | – | 37.5 | 33.9 | – | –
20 | O=C1NCc2cc(-c3cccc(Cl)c3-c3ccc4c(=O)n(-c5cncc6ccccc56)c(=O)[nH]c4c3)ccc21 [Example 360] | – | 42.1 | 19.4 | – | –
21 | COc1ccc(C#N)c(-c2cc3c(cc2F)c(=O)n(-c2cncc4ccccc24)c(=O)n3CC#N)c1 (atropisomer, axis not shown) [Example 701] | < 3.63 | 79.9 | – | – | –
22 | Cc1cccc2cncc(-n3c(=O)[nH]c4cc(-c5ccccc5Cl)sc4c3=O)c12 [Example 558, 6-(2-chlorophenyl)-3-(5-methylisoquinolin-4-yl)thieno[3,2-d]pyrimidine-2,4(1H,3H)-dione] | 3.39 | 17.5 | – | – | –
23 | Cc1ccc(C#N)cc1-c1cc2c(s1)c(=O)n(-c1cncc3ccccc13)c(=O)n2CCC#N [Example 810] | 19.8 | – | – | 86.9 | –
24 | COc1ccc(Cl)c(-c2cc3[nH]c(=O)n(-c4cncc5c4ccn5C)c(=O)c3s2)c1 [Example 489] | 2.63 | 20.4 | – | – | –

Row | Compound | IC50 [1, 2] [nM] | EC50 (SARS-CoV-2-NLuc; [3]) [nM] | IC50 [1, 4] [nM] | EC50 (SARS-CoV-2-NLuc; [5]) [nM] | EC50 (SARS-CoV-2-NLuc; read-out: MPro EC50) [nM]
25 | Cc1c(-c2cccc(Cl)c2-c2ccc3c(=O)n(-c4cncc5ccccc45)c(=O)[nH]c3c2)cnn1C1CCN(C(=O)OC(C)(C)C)CC1 [Example 268] | – | 43.1 | 131 | – | –
26 | COc1cc(Cl)c(-c2cc3c(s2)c(=O)n(-c2cncc4cnn(C)c24)c(=O)n3CCC#N)cc1Cl [Example 791] | 6.98 | 9.04 | – | – | –
27 | CC(=O)NCCn1c(=O)n(-c2cncc3ccccc23)c(=O)c2sc(-c3ccccc3Cl)cc21 [Example 614] | 35 | – | – | – | 64
28 | COc1cc(-c2cc3c(s2)c(=O)n(-c2cncc4cnn(C)c24)c(=O)n3CCC#N)c(Cl)cc1F (single isomer, unassigned) [Example 645, 3-[6-(2-chloro-4-fluoro-5-methoxy-phenyl)-3-(1-methylpyrazolo[4,3-c]pyridin-7-yl)-2,4-dioxo-thieno[3,2-d]pyrimidin-1-yl]propanenitrile] | 43.5 | – | – | – | 36
29 | 6-[2-chloro-6-(8-methyl-[1,2,4]triazolo[1,5-a]pyridin-6-yl)phenyl]-3-(6-methoxy-4-isoquinolyl)-1H-thieno[3,2-d]pyrimidine-2,4-dione [Example 565] | 16.5 | – | – | – | 58.1
30 | O=c1[nH]c2cc(-c3ccccc3Cl)sc2c(=O)n1-c1cncc(C2CCC2)c1 [Example 379] | – | – | 436 | 186 | –
31 | Cc1cncc(-n2c(=O)[nH]c3cc(-c4ccccc4Cl)sc3c2=O)c1C [Example 132] | – | 27.4 | 9.12 | – | –
32 | COc1cc(-c2cc3[nH]c(=O)n(-c4cncc5[nH]nc(C(F)(F)F)c45)c(=O)c3s2)c(Cl)cc1F [Example 1045, 6-(2-chloro-4-fluoro-5-methoxyphenyl)-3-(3-(trifluoromethyl)-1H-pyrazolo[3,4-c]pyridin-4-yl)thieno[3,2-d]pyrimidine-2,4(1H,3H)-dione] | 141 | > 1000 | – | – | –
33 | COc1cnc(C#N)c(-c2cc3c(s2)c(=O)n(-c2cncc4ccccc24)c(=O)n3CCC#N)c1 [Example 837, 3-(1-(2-cyanoethyl)-3-(isoquinolin-4-yl)-2,4-dioxo-1,2,3,4-tetrahydrothieno[3,2-d]pyrimidin-6-yl)-5-methoxypicolinonitrile] | 9.22 | 30.4 | – | – | –
34 | Cc1ccccc1-c1cc2[nH]c(=O)n(-c3cncc4ccccc34)c(=O)c2s1 [Example 7] | – | 109 | 24.7 | – | –
35 | O=C1Nc2ccc(-c3cccc(Cl)c3-c3ccc4c(=O)n(-c5cncc6ccccc56)c(=O)[nH]c4c3)cc2C1(F)F [Example 173] | – | 650 | 380 | – | –
36 | COc1cc(-c2cc3[nH]c(=O)n(-c4cncc(Cl)c4C)c(=O)c3s2)c(Cl)cc1F [Example 743, 6-(2-chloro-4-fluoro-5-methoxy-phenyl)-3-(5-chloro-4-methyl-3-pyridyl)-1H-thieno[3,2-d]pyrimidine-2,4-dione] | 12.1 | – | – | 16.3 | –
37 | COc1ccc(C#N)c(-c2cc3[nH]c(=O)n(-c4cncc5sccc45)c(=O)c3s2)c1 [Example 608] | < 2.54 | < 4.97 | – | – | –
38 | O=c1[nH]c2cc(-c3cc(F)c(F)cc3Cl)sc2c(=O)n1-c1cncc2ccccc12 [Example 286] | – | 60.3 | 34.8 | – | –
39 | COc1ccc(Cl)c(-c2cc3[nH]c(=O)n(-c4cncc5cccc(C)c45)c(=O)c3s2)c1 [Example 559] | 6.23 | 9.19 | – | – | –
40 | Cc1cc2c(=O)n(-c3cncc4ccccc34)c(=O)[nH]c2cc1-c1ccccc1Cl [Example 81] | – | 184 | 231 | – | –
41 | COc1cc(-c2cc3[nH]c(=O)n(-c4cncc5ccc(C)nc45)c(=O)c3s2)c(Cl)cc1F (single isomer, unassigned) [Example 1035, 6-(2-chloro-4-fluoro-5-methoxyphenyl)-3-(2-methyl-1,6-naphthyridin-8-yl)thieno[3,2-d]pyrimidine-2,4(1H,3H)-dione] | 26.3 | – | – | – | 24.4
42 | N#CCCn1c(=O)n(-c2cnccn2)c(=O)c2sc(-c3ccc(F)cc3C#N)cc21 [Example 829] | 420 | – | – | > 1000 | –
43 | COc1cc(-c2cc3c(s2)c(=O)n(-c2cncc4c2n(C)c(=O)n4C)c(=O)n3CCC#N)c(Cl)cc1F [Example 937] | 8.42 | 11.4 | – | – | –
44 | Cc1n[nH]cc1-c1cccc(Cl)c1-c1ccc2c(=O)n(-c3cncc4ccccc34)c(=O)[nH]c2c1 [Example 261] | – | 98.6 | 79 | – | –
45 | Cn1ncc2cncc(-n3c(=O)[nH]c4cc(-c5c(Cl)cccc5-c5cncc(C#N)c5)sc4c3=O)c21 [Example 677] | 7.27 | – | – | 45 | –
46 | Cc1cnnc(-n2c(=O)c3sc(-c4ccccc4Cl)cc3n(CCC#N)c2=O)c1 [Example 835] | 9.44 | – | – | 28.1 | –
47 | COc1cc(-c2cc3c(s2)c(=O)n(-c2cncc4nc(-c5ccccc5F)n(C)c24)c(=O)n3CCC#N)c(Cl)cc1F [Example 756] | 19.6 | 90.7 | – | – | –
48 | N#CCn1c(=O)n(-c2cncc3ccccc23)c(=O)c2sc(-c3c(Cl)cccc3-c3cncc(C#N)c3)cc21 [Example 681] | 4.49 | 11.1 | – | – | –
